# Non-standard residues stand in square brackets, D forms with d. *: point of attachment. Palmitoyl = CCCCCCCCCCCCCCCC(=O)*; Nle = CCCC[C@H](N)C(=O)O
# Assays:
# hyaluronidase = assay: Hyaluronidase inhibition experiment; type: biochemical; settings: FIG. 11; for hyaluronidase inhibition rate: at 100 ppm; for inhibition of hyaluronidase activity: at the tested concentrations (50 ppm and 100 ppm)
# Source text: Spectrophotometer, phosphate buffered saline (PBS), hyaluronic acid, and hyaluronidase.
# Peptide (13) and peptide (14). The test concentrations of all the above samples were 50 ppm and 100 ppm.
# The experiment was divided into four groups: blank control group A1 (PBS+hyaluronidase), enzyme-free blank control group A2 (PBS+solvent without hyaluronidase), sample group B1 (samples to be tested+hyaluronidase), and enzyme-free sample group B2 (samples to be tested+solvent without hyaluronidase). The total reaction volume of each group was the same.
# According to the grouping, 100 μL of CaCl2) (2.5 mmol/L) was mixed with 500 μL of hyaluronidase (500 U/mL) or solvent without hyaluronidase, and 20 μL of the mixture was taken and shaken in a 37° C. constant temperature gas bath oscillator for 20 min. The blank control group was added with 20 μL of PBS and shaken in a 37° C. constant temperature gas bath oscillator for 20 min. The sample groups were added with 20 μL of samples at different concentrations and shaken in a 37° C. constant temperature gas bath oscillator for 20 min. The above groups were added with 40 μL of hyaluronic acid and shaken in a 37° C. constant temperature gas bath oscillator for 40 min. 10 μL of acetylacetone solution was added and shaken in a 50° C. constant temperature gas bath oscillator for 10 min, then placed in an oven at 75° C. for 40 min and at 50° C. for 10 min. After the reaction was completed and cooled, the plastic wrap was quickly removed to avoid the generation of water vapor. Then 100 μL of 96% anhydrous ethanol and 10 μL of Ehrlich reagent were added, and the absorbances were measured at 492 nm.
# Hyaluronidase can decompose hyaluronic acid in the body, converting it into low-molecular-weight acidic irritant, thereby causing the release of histamine and inducing sensitive symptoms in the body. In addition, the reduction of hyaluronic acid will destroy the skin barrier function, leading to the loss of moisture inside the skin. Therefore, inhibiting the activity of hyaluronidase can achieve the effects of soothing, moisturizing and repairing the skin barrier.
# filaggrin (FLG) = assay: Filaggrin expression experiment (UV-irradiated HaCaT cells); type: cell-based, Human; settings: 80 mJ/cm^2 UV, 24 h, 10-50 ppm, compared with UV group, fluorescence staining, FIG. 10
# Procedure: (§1) Human keratinocytes (HaCaT) were purchased from the Kunming Cell Bank of China Center for Type Culture Collection under the Chinese Academy of Sciences.
# Polypeptide group: Peptide (4), peptide (9), peptide (13) and peptide (20). The test concentrations of all the above samples were 10 ppm and 50 ppm.
# (§2) Blank control group: PBS.
# UV group: UV radiation with PBS.
# The frozen HaCaT cells were cultured and passaged at a ratio of 1:2 to about the 5th generation, and the cells in better growth were selected as experiment subjects. The cell suspension was taken and inoculated into a 96-well plate at 10^4 cells/well, complete culture medium was added, and the mixture was cultured in a 5% CO2 incubator at 37° C. for 24 h. A UV photoaging model was established when the cells reached approximately 80% confluence. […]
# After incubation, the cells were digested, grown on a cell climbing slice for 12 hours and then fixed. The cells were stained using a filaggrin (FLG) detection kit and observed under a fluorescence microscope after staining.
# Filaggrin (FLG) is an important molecule that links keratin fibers in the stratum corneum of human skin. […] In this experiment, 80 mJ/cm^2 UV energy was selected for radiation to establish a skin stratum corneum cell model, and the effect of the sample on FLG expression was detected to analyze whether the peptides of the present invention can promote FLG expression.
# [1] = tested on: Human keratinocytes (HaCaT); assay: Cell proliferation assay (MTT) in HaCaT cells; type: cell-based; settings: FIG. 6; for cell activity / proliferation of HaCaT keratinocytes: 72 h, at low concentrations (tested 6.25, 12.5, 25 ppm)
# Source text: Thiazolyl blue (MTT), dimethyl sulfoxide (DMSO), DMEM culture medium, fetal bovine serum, and PBS.
# as §1
# Polypeptide group: Peptide (4), peptide (9), peptide (13) and peptide (20). The test concentrations of all the above samples were 6.25 ppm, 12.5 ppm and 25 ppm.
# as §2
# Positive control group: 2% DMSO.
# Cells in good exponential growth phase were taken. A 0.25% trypsin digestion solution was added so that digestion allowed the adherent cells to fall off, counting 1 to 4×10^5 cells/mL, which were prepared into a cell suspension.
# The cell suspension was inoculated into a 96-well plate with 200 μL/well, and cultured in a constant-temperature CO2 incubator for 24 h.
# After changing the medium, samples of the polypeptide groups, the blank control group and the positive control group were added at 20 μL/well respectively, and incubated in a 5% CO2 incubator at 37° C. for 72 h.
# 20 μL of 5 mg/mL MTT was added to each well and the incubation was continued in the 5% CO2 incubator at 37° C. for 4 h. The original solution was removed and 150 μL/well of DMSO was added. After shaking the plate on a plate shaker for 5 min, a microplate reader was used to determine the OD value of each well at a wavelength of 570 nm, and the cell viability was calculated.
# Cell viability=[OD (test sample well)−OD (zero adjustment well)]/[OD (blank control well)−OD (zero adjustment well)]×100%
# The MTT assay is a method of detecting cell survival and growth. The measured OD values are directly proportional to cell viability. The higher the cell viability, the larger the OD value.
# hyaluronic acid = assay: Determination of hyaluronic acid content in HaCaT cells; type: cell-based, Human; settings: 12.5 ppm, 48 h, compared with blank control, FIG. 9
# Procedure: as §1
# Polypeptide group: Peptide (4), peptide (13) and peptide (20). The test concentrations of all the above samples were 12.5 ppm.
# as §2
# A bottle of HaCaT cells in good exponential growth phase was taken. A 0.25% trypsin digestion solution was added so that digestion allowed the adherent cells to fall off, counting 1 to 4×10^6 cells/mL, which were prepared into a cell suspension.
# The cells were inoculated into a 6-well plate at 10^5 cells/well, and grouped when the cells reached approximately 80% confluence. […]
# After completion of the culture, cells were scraped off using a cell scraper, and 200 μL of RIPA lysis buffer was added to extract proteins. […] The total protein concentration was quantified to 1 mg/mL using the BCA method. […] The OD value of each well was measured in sequence at 570 nm using a microplate reader within 15 min.
# Hyaluronic acid is one of the main matrix ingredients of the human skin epidermis and an important component of the skin barrier. […] This experiment measured the effect of the peptide of the present invention on the hyaluronic acid content to determine whether the peptide of the invention can increase the hyaluronic acid content and thus play a role in moisturizing and anti-aging repair.
Compound,hyaluronidase inhibition rate (hyaluronidase),inhibition of hyaluronidase activity (hyaluronidase),cell activity / proliferation of HaCaT keratinocytes [1],hyaluronic acid content (hyaluronic acid),other results
Palm-Lys-Val-Lys-Leu-Tyr-NH2 (Palmitoyl-KVKLY-NH2; SMILES CCCCCCCCCCCCCCCC(=O)N[C@@H](CCCCN)C(=O)N[C@H](C(=O)N[C@@H](CCCCN)C(=O)N[C@@H](CC(C)C)C(=O)N[C@@H](Cc1ccc(O)cc1)C(N)=O)C(C)C) [peptide (13)],49.40%,inhibited the activity of hyaluronidase,–,–,FLG content / FLG expression (filaggrin (FLG)): optimum technical effect
Palm-Val-Lys-Leu-Tyr-Gly-Ser-NH2 (Palmitoyl-VKLYGS-NH2; SMILES CCCCCCCCCCCCCCCC(=O)N[C@H](C(=O)N[C@@H](CCCCN)C(=O)N[C@@H](CC(C)C)C(=O)N[C@@H](Cc1ccc(O)cc1)C(=O)NCC(=O)N[C@@H](CO)C(N)=O)C(C)C) [peptide (9)],–,–,significantly improve cell activity,–,–
Palm-Lys-Val-Lys-Leu-Tyr-OH (Palmitoyl-KVKLY-OH; SMILES CCCCCCCCCCCCCCCC(=O)N[C@@H](CCCCN)C(=O)N[C@H](C(=O)N[C@@H](CCCCN)C(=O)N[C@@H](CC(C)C)C(=O)N[C@@H](Cc1ccc(O)cc1)C(=O)O)C(C)C) [peptide (14)],40.96%,inhibited the activity of hyaluronidase,–,–,–
Palmitoyl-G[Nle]KLY-NH2 [peptide (4)],–,–,–,more superior technical effects,–
"C[S+](C)[O-] [2% DMSO, dimethyl sulfoxide, reference compound]",–,–,–,–,"toxic effect on HaCaT cells (cell viability) ([1]; 72 h incubation, peptides at 6.25, 12.5 and 25 ppm, compared with blank control (PBS)): had a toxic effect on HaCaT cells"
Palmitoyl-G[Nle]RLY-NH2 [peptide (20)],–,–,significantly improve cell activity,more superior technical effects,–

# — patent publication US20260049103A1, “PEPTIDE, AND COMPOSITION THEREOF AND USE THEREOF” (WINKEY TECHNOLOGY USA INC, priority 2023, published 2026)
